Activity and IC50 data for 24 compounds are collected here from ChEMBL document CHEMBL2406945, “Integrated Synthesis and Testing of Substituted Xanthine Based DPP4 Inhibitors: Application to Drug Discovery” (ACS Med Chem Lett, 2013).

Test [1] deals with Dipeptidyl peptidase 4 (Sus scrofa) (UniProt P22411). The experiment in a line: Inhibition of porcine DPP4 assessed as residual enzyme activity using H-Gly-Pro-AMC as substrate by fluorescence assay.
The target in test [2] is T1, Dipeptidyl peptidase 4 (Sus scrofa, UniProt P22411). In words: Inhibition of porcine DPP4.
The target of test [3] is T1, Dipeptidyl peptidase 4. In words: Inhibition of porcine DPP4 using H-Gly-Pro-AMC as substrate by fluorescence assay.
Test [4] addresses Dipeptidyl peptidase 4 (Homo sapiens, UniProt P27487). The experiment in a line: Inhibition of human DPP4 using H-Gly-Pro-AMC as substrate by fluorescence assay.

T1 sequence (P22411 whole entry): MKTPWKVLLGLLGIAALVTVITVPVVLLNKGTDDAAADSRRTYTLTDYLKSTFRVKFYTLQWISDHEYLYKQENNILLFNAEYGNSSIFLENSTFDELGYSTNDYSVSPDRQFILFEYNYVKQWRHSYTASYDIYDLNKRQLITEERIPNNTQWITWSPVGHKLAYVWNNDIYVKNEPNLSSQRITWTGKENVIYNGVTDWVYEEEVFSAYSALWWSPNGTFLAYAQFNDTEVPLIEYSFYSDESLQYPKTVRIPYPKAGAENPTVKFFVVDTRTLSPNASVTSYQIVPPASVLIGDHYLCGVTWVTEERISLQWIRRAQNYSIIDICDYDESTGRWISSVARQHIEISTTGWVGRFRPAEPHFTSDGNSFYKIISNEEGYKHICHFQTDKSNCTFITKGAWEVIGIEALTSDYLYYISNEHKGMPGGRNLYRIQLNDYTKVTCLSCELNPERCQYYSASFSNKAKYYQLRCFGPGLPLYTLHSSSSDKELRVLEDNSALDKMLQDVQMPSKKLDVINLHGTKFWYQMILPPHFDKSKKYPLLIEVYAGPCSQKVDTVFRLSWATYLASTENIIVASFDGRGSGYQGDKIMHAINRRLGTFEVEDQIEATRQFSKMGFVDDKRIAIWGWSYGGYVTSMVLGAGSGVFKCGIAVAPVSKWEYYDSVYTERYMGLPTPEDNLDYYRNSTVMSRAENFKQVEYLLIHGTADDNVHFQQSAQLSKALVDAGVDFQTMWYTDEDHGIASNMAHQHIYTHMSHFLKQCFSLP
Sequence of Dipeptidyl peptidase 4 (Sus scrofa) (P22411 whole entry, looked up): as the sequence (P22411 whole entry) above
Sequence of Dipeptidyl peptidase 4 (Homo sapiens, UniProt P27487) (P27487 whole entry): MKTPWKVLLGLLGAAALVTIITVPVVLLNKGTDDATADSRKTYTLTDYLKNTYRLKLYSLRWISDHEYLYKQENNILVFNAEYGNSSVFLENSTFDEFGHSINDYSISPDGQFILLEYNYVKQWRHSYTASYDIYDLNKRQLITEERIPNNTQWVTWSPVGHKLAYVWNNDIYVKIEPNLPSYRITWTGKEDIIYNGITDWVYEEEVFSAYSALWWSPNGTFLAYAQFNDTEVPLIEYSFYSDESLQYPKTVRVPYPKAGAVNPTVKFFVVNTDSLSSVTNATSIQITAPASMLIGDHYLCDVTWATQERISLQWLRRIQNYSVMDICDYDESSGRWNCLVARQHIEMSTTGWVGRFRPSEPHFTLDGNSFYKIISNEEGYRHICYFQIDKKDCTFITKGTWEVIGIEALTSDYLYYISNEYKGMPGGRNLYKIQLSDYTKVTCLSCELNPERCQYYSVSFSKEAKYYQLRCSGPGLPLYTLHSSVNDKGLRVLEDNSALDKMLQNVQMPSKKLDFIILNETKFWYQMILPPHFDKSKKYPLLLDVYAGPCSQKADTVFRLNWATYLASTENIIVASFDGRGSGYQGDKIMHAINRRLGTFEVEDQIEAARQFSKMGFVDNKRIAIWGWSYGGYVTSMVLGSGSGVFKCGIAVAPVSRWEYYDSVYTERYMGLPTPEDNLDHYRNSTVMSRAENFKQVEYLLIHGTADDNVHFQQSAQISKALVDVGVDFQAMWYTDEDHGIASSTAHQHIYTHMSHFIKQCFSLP

Regarding `CC(C)=CCn1c(OC2CCNCC2)nc2c1c(=O)n(C)c(=O)n2C`, in test [1], the Activity is greater than 5000 nM. Take `CC(C)=CCn1c(OCCCN)nc2c1c(=O)n(CC(=O)c1ccccc1)c(=O)n2C`: the Activity in test [1] came to 22 nM. In the case of `CC(C)=CCn1c(OC[C@H]2CCCN2)nc2c1c(=O)n(C)c(=O)n2C`, the Activity in test [1] was greater than 7000 nM.

`CC(C)=CCn1c(OCC(C)(C)CN)nc2c1c(=O)n(C)c(=O)n2C`: the Activity in test [1] is 260 nM.

Consider `CC(C)=CCn1c(OC[C@H](C)N)nc2c1c(=O)n(C)c(=O)n2C`, for which, in test [1], the Activity was 780 nM. What is called IC50 is the concentration that gives 50% inhibition. Read a high IC50 as lower potency. As to `CC(C)=CCn1c(N2CCC[C@@H](N)C2)nc2c1c(=O)n(CC(=O)c1ccccc1)c(=O)n2C`, the results for the concentration for half-maximal inhibition (IC50) in test [2] and in test [3] were less than 40 nM and 0.73 nM, respectively. Besides, the Activity in test [1] is 0.7 nM. In the case of `CC(C)=CCn1c(N2CCC[C@H](N)C2)nc2c1c(=O)n(C)c(=O)n2C`, the Activity in test [1] is 6 nM. The same measure, in the same setting: the figure for `CC(C)=CCn1c(N2CC3CCCNC3C2)nc2c1c(=O)n(CC(=O)c1ccccc1)c(=O)n2C` (configuration not stated) is 269 nM. Consider `CC(C)=CCn1c(OC[C@@H]2CCCN2)nc2c1c(=O)n(CC(=O)c1ccccc1)c(=O)n2C`, for which the IC50 is 17 nM in test [2] and 16 nM in test [3]. Besides, the Activity in test [1] came to 2.6 nM. Turning to `CC(C)=CCn1c(OC[C@@H](N)Cc2ccccc2)nc2c1c(=O)n(C)c(=O)n2C`, the Activity in test [1] came to 430 nM. `CC(C)=CCn1c(N2CCC[C@H](N)C2)nc2c1c(=O)n(CC(=O)c1ccccc1)c(=O)n2C`: the Activity in test [1] came to 4 nM. Regarding `CC(C)=CCn1c(N2CCC[C@@H](N)C2)nc2c1c(=O)n(C)c(=O)n2C`, the Activity in test [1] was 11 nM. The same measure, in the same setting: next, `CC(C)=CCn1c(N2CC3CCNC3C2)nc2c1c(=O)n(C)c(=O)n2C` (configuration not stated): 6000 nM; `CC(C)=CCn1c(O[C@@H](C)CN)nc2c1c(=O)n(CC(=O)c1ccccc1)c(=O)n2C`: 420 nM. On to `CC(C)=CCn1c(OC[C@H]2CCCN2)nc2c1c(=O)n(CC(=O)c1ccccc1)c(=O)n2C`, for which the IC50 in test [2] stood at 2500 nM; in test [3] it was 705 nM. In test [1], the Activity is 580 nM. As for `CC(C)=CCn1c(O[C@H]2CCNC2)nc2c1c(=O)n(C)c(=O)n2C`, the Activity in test [1] was greater than 8000 nM.

Take `CC(C)=CCn1c(N2CCC3CNCC32)nc2c1c(=O)n(C)c(=O)n2C` (configuration not stated): the concentration for half-maximal inhibition (IC50) in test [2] was determined as 210 nM; in test [3], 130 nM. In test [1], the Activity is 132 nM.

In the case of `CC(C)=CCn1c(OCC(C)(C)CN)nc2c1c(=O)n(CC(=O)c1ccccc1)c(=O)n2C`, the IC50 was found to be 9 nM in test [2] and 6.5 nM in test [3]. Besides, in test [1], the Activity amounted to 6 nM. Turning to `CC(C)=CCn1c(N2CC3CCCNC3C2)nc2c1c(=O)n(C)c(=O)n2C` (configuration not stated), in test [1], the Activity was greater than 24500 nM. Turning to `CC(C)=CCn1c(N2CCNCC2)nc2c1c(=O)n(C)c(=O)n2C`, the Activity in test [1] is 173 nM. On to `CC(C)=CCn1c(N2CCNCC2)nc2c1c(=O)n(CC(=O)c1ccccc1)c(=O)n2C`, for which the Activity in test [1] was 11 nM. As for `CC(C)=CCn1c(O[C@@H]2CCNC2)nc2c1c(=O)n(C)c(=O)n2C`, the Activity in test [1] was greater than 7000 nM. Take `CC(C)=CCn1c(OC[C@@H]2CCCN2)nc2c1c(=O)n(C)c(=O)n2C`: the Activity in test [1] is 1600 nM. Consider `CC(C)=CCn1c(OC2CCNCC2)nc2c1c(=O)n(CC(=O)c1ccccc1)c(=O)n2C`, for which the IC50 was 1100 nM in test [2], 275 nM in test [3] and greater than 1000 nM in test [4]. For the same compound, the Activity in test [1] stood at 275 nM.
